Results from BindingDB's records for doi:10.7270/Q2TX3CTT (Broad Institute, 2010).

Target: Glycogen synthase kinase-3 beta (Homo sapiens, UniProt P49841)
Test: GSK3beta kinase inhibitor potency, dose response, biochemical, luminescence, cell-free homogeneous, retest (AID 434954)

Chain of Glycogen synthase kinase-3 beta (P49841 whole entry): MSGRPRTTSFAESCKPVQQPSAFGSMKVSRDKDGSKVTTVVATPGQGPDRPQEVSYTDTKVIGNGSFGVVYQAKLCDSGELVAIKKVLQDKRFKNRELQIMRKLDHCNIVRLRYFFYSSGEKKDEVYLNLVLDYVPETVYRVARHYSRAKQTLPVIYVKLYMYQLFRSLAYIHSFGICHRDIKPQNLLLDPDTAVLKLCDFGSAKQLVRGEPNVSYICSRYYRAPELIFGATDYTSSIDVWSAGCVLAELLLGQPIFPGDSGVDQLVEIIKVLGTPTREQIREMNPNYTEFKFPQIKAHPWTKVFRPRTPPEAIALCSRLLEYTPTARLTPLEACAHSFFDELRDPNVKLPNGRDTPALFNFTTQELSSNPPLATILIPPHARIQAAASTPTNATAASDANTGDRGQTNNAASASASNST

| EC50 [µM] | Structure (SMILES) |
| --- | --- |
| 0.946 | COc1ccc2nc3c(cc2c1)c(NC(=O)C1CCCO1)nn3CC(C)C (centres undefined) [N-[6-methoxy-1-(2-methylpropyl)-3-pyrazolo[3,4-b]quinolinyl]-2-oxolanecarboxamide] |
| > 300 | CCC(=O)Nc1nn(CC(C)C)c2nc3ccc(C)cc3cc12 [N-[6-methyl-1-(2-methylpropyl)pyrazolo[3,4-b]quinolin-3-yl]propanamide] |
| > 300 | Cc1ccc(S(=O)(=O)NN=Cc2cn(-c3ccccc3)nc2-c2ccccc2)cc1 [N-[(1,3-diphenylpyrazol-4-yl)methylideneamino]-4-methylbenzenesulfonamide] |
| 6.45 | O=NCc1cn(-c2ccccc2)nc1-c1cccnc1 [N-[(1-phenyl-3-pyridin-3-ylpyrazol-4-yl)methylidene]hydroxylamine] |
| > 300 | C=CCOc1ccc(CN=Nc2ccccn2)cc1OC [N-[(3-methoxy-4-prop-2-enoxyphenyl)methylideneamino]pyridin-2-amine] |
| 9 | Cc1ccsc1CN=Nc1ncnc2nc[nH]c12 [N-[(3-methyl-2-thiophenyl)methylideneamino]-7H-purin-6-amine] |
| > 300 | COCCn1c(SCC(=O)NCc2ccc(F)cc2)nc2ccccc21 [N-[(4-fluorophenyl)methyl]-2-[1-(2-methoxyethyl)benzimidazol-2-yl]sulfanylacetamide] |
| 83.9 | O=C(NC(=S)Nc1cccc2c(O)cccc12)c1ccco1 [N-[(5-hydroxynaphthalen-1-yl)carbamothioyl]furan-2-carboxamide] |
| > 300 | COc1ccc(/C=C2/SC(NS(=O)(=O)Cc3ccccc3)=NC2=O)cc1OC [N-[(5E)-5-[(3,4-dimethoxyphenyl)methylidene]-4-oxo-2-thiazolyl]-1-phenylmethanesulfonamide] |
| 3.99 | COc1ccc(-c2nn(-c3ccccc3)cc2CN=O)cc1OC [N-[[3-(3,4-dimethoxyphenyl)-1-phenylpyrazol-4-yl]methylidene]hydroxylamine] |
| > 300 | COc1cc(/C=N/NC(=O)c2ccc3ccccc3c2)ccc1Oc1ccc([N+](=O)[O-])cn1 [N-[[3-methoxy-4-(5-nitropyridin-2-yl)oxy-phenyl]methylideneamino]naphthalene-2-carboxamide] |
| > 300 | COc1cc([CH+][N-]NC(=O)c2ccncc2)ccc1Oc1ccc([N+](=O)[O-])cn1 [N-[[3-methoxy-4-[(5-nitro-2-pyridinyl)oxy]phenyl]methylideneamino]-4-pyridinecarboxamide] |
| 12.8 | O=NCc1ccc(Oc2ccccc2Cl)c([N+](=O)[O-])c1 [N-[[4-(2-chlorophenoxy)-3-nitrophenyl]methylidene]hydroxylamine] |
| > 300 | CC(C=Cc1ccccc1F)=NNC(=O)C(C)C [N-[[(E)-4-(2-fluorophenyl)but-3-en-2-ylidene]amino]-2-methylpropanamide] |
| > 300 | COc1cc(C(=O)NC(=S)N(CCc2ccccc2)CCc2ccccc2)cc(OC)c1OC [N-[bis(2-phenylethyl)carbamothioyl]-3,4,5-trimethoxybenzamide] |
| > 300 | Clc1nccc(NCc2ccccc2)n1 [N-benzyl-N-(2-chloropyrimidin-4-yl)amine] |
| > 300 | O=C(NC1CCCCC1)C(c1ccc(F)cc1)N(Cc1ccccc1)C(=O)CN1C(=O)c2ccccc2S1(=O)=O (centres undefined) [N-cyclohexyl-2-(4-fluorophenyl)-2-[[1-oxo-2-(1,1,3-trioxo-1,2-benzothiazol-2-yl)ethyl]-(phenylmethyl)amino]acetamide] |

More lines, now with the values behind:

| Structure (SMILES) | EC50 [µM] |
| --- | --- |
| COc1ccc2nc3c(cc2c1)c(NC(=O)CC(C)C)nn3CC(C)C [N-[6-methoxy-1-(2-methylpropyl)-3-pyrazolo[3,4-b]quinolinyl]-3-methylbutanamide] | > 300 |
| Cc1c([CH+][N-]NC(=O)COc2ccccc2[N+](=O)[O-])c2ccccc2n1C [N-[(1,2-dimethylindol-3-yl)methylideneamino]-2-(2-nitrophenoxy)acetamide] | > 300 |
| COc1ccc(N(CN2C(=O)C3CC=CCC3C2=O)C(=O)c2ccco2)cc1 (centres undefined) [N-[(1,3-dioxo-3a,4,7,7a-tetrahydroisoindol-2-yl)methyl]-N-(4-methoxyphenyl)-2-furancarboxamide] | > 300 |
| Cn1cc([CH+][N-]NC(=O)COc2ccccc2[N+](=O)[O-])c2ccccc21 [N-[(1-methylindol-3-yl)methylideneamino]-2-(2-nitrophenoxy)acetamide] | > 300 |
| CC(=O)N(\C=C/C=C/C=C1\Sc2ccccc2C1=O)c1ccccc1 [N-[(1Z,3E,5Z)-5-(3-oxo-1-benzothien-2(3H)-ylidene)penta-1,3-dienyl]-N-phenylacetamide] | > 300 |
| COc1cccc2cc(C(=O)NCc3ccccc3Br)c(=O)oc12 [N-[(2-bromophenyl)methyl]-8-methoxy-2-oxo-1-benzopyran-3-carboxamide] | > 300 |
| Fc1ccccc1CNc1nc(-c2cccnc2)nc2ccccc12 [N-[(2-fluorophenyl)methyl]-2-pyridin-3-ylquinazolin-4-amine] | > 300 |
| Clc1cccc(CNc2nc(-c3cccnc3)nc3ccccc23)c1 [N-[(3-chlorophenyl)methyl]-2-(3-pyridinyl)-4-quinazolinamine] | > 300 |
| O=NCc1ccc(Sc2ccccc2)c([N+](=O)[O-])c1 [N-[(3-nitro-4-phenylsulfanylphenyl)methylidene]hydroxylamine] | 39.3 |
| O=C(N[N-][CH+]c1ccc(N2CCCC2)c([N+](=O)[O-])c1)c1cccnc1 [N-[(3-nitro-4-pyrrolidin-1-ylphenyl)methylideneamino]pyridine-3-carboxamide] | > 300 |
| COc1ccc(CN(CC(=O)NCc2ccc(F)cc2)C(=O)CCC(=O)Nc2ccccn2)cc1 [N-[(4-Fluoro-benzylcarbamoyl)-methyl]-N-(4-methoxy-benzyl)-N'-pyridin-2-yl-succinamide] | > 300 |
| Cc1ccccc1N(CC(=O)NN=Cc1cc(Br)c(C)o1)S(C)(=O)=O [N-[(4-bromo-5-methylfuran-2-yl)methylideneamino]-2-(2-methyl-N-methylsulfonylanilino)acetamide] | > 300 |
| C=CCn1c(=O)c(C(=O)NCc2ccc(Cl)cc2)c(O)c2ccccc21 [N-[(4-chlorophenyl)methyl]-2-hydroxy-4-oxo-1-prop-2-enyl-3-quinolinecarboxamide] | > 300 |
| Fc1ccc(CNc2nc(-c3cccnc3)nc3ccccc23)cc1 [N-[(4-fluorophenyl)methyl]-2-(3-pyridinyl)-4-quinazolinamine] | > 300 |
| COc1ccc(/C=C(/NC(=O)c2ccccc2)C(=O)NN=Cc2ccncc2)c(OC)c1 [N-[(E)-1-(2,4-dimethoxyphenyl)-3-oxo-3-[2-(pyridin-4-ylmethylidene)hydrazinyl]prop-1-en-2-yl]benzamide] | > 300 |
| CCn1c(C=CN(C(C)=O)c2ccccc2)[n+](CC)c2cc(Cl)ccc21 [N-[(E)-2-(5-chloro-1,3-diethylbenzimidazol-1-ium-2-yl)ethenyl]-N-phenylacetamide;iodide] | > 300 |

| Structure (SMILES) | EC50 [µM] |
| --- | --- |
| CC[n+]1c(/C=C/N(C)c2ccccc2)sc2ccc(Cl)cc21 [N-[(E)-2-(5-chloro-3-ethyl-1,3-benzothiazol-3-ium-2-yl)ethenyl]-N-methylaniline;perchlorate] | 49.8 |
| NC(=NNC(=O)c1ccc(Cl)cc1)c1cnccn1 [N-[(Z)-[azanyl(pyrazin-2-yl)methylidene]amino]-4-chloranyl-benzamide] | > 300 |
| CC(C)(C)NC(=O)NC(=O)CSc1nncs1 [N-[(tert-butylamino)-oxomethyl]-2-(1,3,4-thiadiazol-2-ylthio)acetamide] | > 300 |
| O=NCc1cn(-c2ccccc2)nc1-c1ccc2c(c1)OCCO2 [N-[[3-(2,3-dihydro-1,4-benzodioxin-6-yl)-1-phenylpyrazol-4-yl]methylidene]hydroxylamine] | 58.7 |
| Cc1ccc(-c2nn(-c3ccccc3)cc2CN=O)cc1 [N-[[3-(4-methylphenyl)-1-phenylpyrazol-4-yl]methylidene]hydroxylamine] | 0.565 |
| COc1cc([CH+][N-]NC(=O)COc2ccc([N+](=O)[O-])cc2)ccc1OCC(=O)N1CCOCC1 [N-[[3-methoxy-4-[2-(4-morpholinyl)-2-oxoethoxy]phenyl]methylideneamino]-2-(4-nitrophenoxy)acetamide] | > 300 |
| COc1cc(CN=O)ccc1Oc1ccc([N+](=O)[O-])cc1[N+](=O)[O-] [N-[[4-(2,4-dinitrophenoxy)-3-methoxyphenyl]methylidene]hydroxylamine] | > 300 |
| Cc1ccc(C)c(S(=O)(=O)NCc2ccc(C(=O)N3CC(C)OC(C)C3)cc2)c1 (centres undefined) [N-[[4-(2,6-dimethylmorpholin-4-yl)carbonylphenyl]methyl]-2,5-dimethyl-benzenesulfonamide] | > 300 |
| O=NCc1ccc(Oc2ccc(F)cc2)c([N+](=O)[O-])c1 [N-[[4-(4-fluorophenoxy)-3-nitrophenyl]methylidene]hydroxylamine] | 23 |
| CCSc1nnc(NC(=O)CSc2nnc(CNC(=O)c3cc(OC)c(OC)c(OC)c3)o2)s1 [N-[[5-[2-[(5-ethylsulfanyl-1,3,4-thiadiazol-2-yl)amino]-2-oxoethyl]sulfanyl-1,3,4-oxadiazol-2-yl]methyl]-3,4,5-trimethoxybenzamide] | > 300 |
| O=C(COc1ccccc1[N+](=O)[O-])NN=C/C=C/c1ccco1 [N-[[(E)-3-(furan-2-yl)prop-2-enylidene]amino]-2-(2-nitrophenoxy)acetamide] | > 300 |
| CN(Cc1ccccc1)S(=O)(=O)c1ccc2c(c1)NC(=O)CC(=O)N2 [N-benzyl-N-methyl-2,4-dioxo-1,5-dihydro-1,5-benzodiazepine-7-sulfonamide] | > 300 |
| CCC(C)NC(=O)CNC(=S)N(CCCN1CCOCC1)Cc1cccs1 (centres undefined) [N-butan-2-yl-2-[[3-morpholin-4-ylpropyl(thiophen-2-ylmethyl)carbamothioyl]amino]ethanamide] | > 300 |
| O=C(NC1CCCCCC1)C1CCCN(S(=O)(=O)c2cccs2)C1 (centres undefined) [N-cycloheptyl-1-thiophen-2-ylsulfonylpiperidine-3-carboxamide] | > 300 |
| CC(C(=O)NC1CCCCCC1)n1cc([N+](=O)[O-])cn1 (centres undefined) [N-cycloheptyl-2-(4-nitro-1-pyrazolyl)propanamide] | > 300 |
| COc1cccc2c1cc1c(=O)n(CC(=O)NC3CCCCC3)nc(C)n12 [N-cyclohexyl-2-(9-methoxy-4-methyl-1-oxidanylidene-[1,2,4]triazino[4,5-a]indol-2-yl)ethanamide] | > 300 |
